From PubChem BioAssay AID248 (DTP/NCI, 2004)
Values joined by “and” are separate entries in the source; they are usually repeats but may differ in a detail not shown here. Identical values can stand only once. Inconclusive results and toxic doses are left out.

Tested on: L1210 leukemia ip in BDF1 mice, survival T/C
Assay: NCI In Vivo Anticancer Drug Screen. Data for tumor model L1210 Leukemia (intraperitoneal) in B6D2F1 (BDF1) mice
Conditions: endpoint: mean survival time, higher = longer survival
Procedure, shortened: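 Survival endpoint. Drug-treated group vs vehicle group, expressed as T divided by C. Tumor passaged by transplantation.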

[1] = dose: 100.0 mg/kg/injection, schedule: Q01DX009 (ip), vehicle: saline
[2] = dose: 200.0 mg/kg/injection, schedule: Q01DX009 (ip), vehicle: saline
[3] = dose: 400.0 mg/kg/injection, schedule: Q01DX009 (ip), vehicle: saline
[4] = dose: 100.0 mg/kg/injection, schedule: Q04DX003 (ip), vehicle: Klucel (hydroxypropylcellulose) (HPC)
[5] = dose: 200.0 mg/kg/injection, schedule: Q04DX003 (ip), vehicle: Klucel (hydroxypropylcellulose) (HPC)
[6] = dose: 400.0 mg/kg/injection, schedule: Q04DX003 (ip), vehicle: Klucel (hydroxypropylcellulose) (HPC)
[7] = dose: 100.0 mg/kg/injection, schedule: Q01DX009 (ip), vehicle: Klucel (hydroxypropylcellulose) (HPC)
[8] = dose: 200.0 mg/kg/injection, schedule: Q01DX009 (ip), vehicle: Klucel (hydroxypropylcellulose) (HPC)
[9] = dose: 400.0 mg/kg/injection, schedule: Q01DX009 (ip), vehicle: Klucel (hydroxypropylcellulose) (HPC)
[10] = dose: 100.0 mg/kg/injection, schedule: Q01DX001 (ip), vehicle: Klucel (hydroxypropylcellulose) (HPC)
[11] = dose: 200.0 mg/kg/injection, schedule: Q01DX001 (ip), vehicle: Klucel (hydroxypropylcellulose) (HPC)
[12] = dose: 400.0 mg/kg/injection, schedule: Q01DX001 (ip), vehicle: Klucel (hydroxypropylcellulose) (HPC)
[13] = dose: 5.0 mg/kg/injection, schedule: Q01DX001 (ip), vehicle: saline
[14] = dose: 10.0 mg/kg/injection, schedule: Q01DX001 (ip), vehicle: saline
[15] = dose: 20.0 mg/kg/injection, schedule: Q01DX001 (ip), vehicle: saline
[16] = dose: 100.0 mg/kg/injection, schedule: Q04DX003 (ip), vehicle: saline
[17] = dose: 200.0 mg/kg/injection, schedule: Q04DX003 (ip), vehicle: saline

COc1ccc(/C=C/C(=N\O)c2ccc(OC)c(OC)c2)cc1OC
T/C (dose: 25.0 mg/kg/injection, schedule: Q01DX009 (ip), vehicle: saline): 86 % of control
T/C (dose: 50.0 mg/kg/injection, schedule: Q01DX009 (ip), vehicle: saline): 98 % of control
T/C [1]: 98 % of control
T/C [2]: 100 % of control
T/C [3]: 98 % of control

CCOC(=O)c1c[nH]c(=O)n(-c2ccccc2)c1=O
T/C [4]: 109 % of control
T/C [5]: 92 % of control
T/C [6]: 106 % of control

O=[N+]([O-])c1cc(Cl)ccc1S(=O)(=O)F
T/C (dose: 100.0 mg/kg/injection, schedule: Q04DX003 (ip), vehicle: carboxymethylcellulose (CMC)): 103 % of control
T/C (dose: 200.0 mg/kg/injection, schedule: Q04DX003 (ip), vehicle: carboxymethylcellulose (CMC)): 94 % of control

C/C(N=Nc1ccc([N+](=O)[O-])cc1)=N\Nc1ccccc1
T/C (dose: 50.0 mg/kg/injection, schedule: Q01DX009 (ip), vehicle: Klucel (hydroxypropylcellulose) (HPC)): 102 % of control
T/C [7]: 107 % of control
T/C [8]: 112 % of control
T/C [9]: 97 % of control

NC(=O)N=C(N)N
T/C (dose: 100.0 mg/kg/injection, schedule: Q01DX001 (ip), vehicle: saline): 92 % of control
T/C (dose: 200.0 mg/kg/injection, schedule: Q01DX001 (ip), vehicle: saline): 90 % of control
T/C (dose: 400.0 mg/kg/injection, schedule: Q01DX001 (ip), vehicle: saline): 92 % of control

Cc1cccc(NC(=S)N2CCOCC2)c1
T/C (dose: 87.5 mg/kg/injection, schedule: Q01DX009 (ip), vehicle: Klucel (hydroxypropylcellulose) (HPC)): 110 % of control
T/C (dose: 175.0 mg/kg/injection, schedule: Q01DX009 (ip), vehicle: Klucel (hydroxypropylcellulose) (HPC)): 100 % of control
T/C (dose: 350.0 mg/kg/injection, schedule: Q01DX009 (ip), vehicle: Klucel (hydroxypropylcellulose) (HPC)): 108 % of control

c1ccc(-c2cc(-c3ccccc3)on2)cc1
T/C [4]: 100 % of control
T/C [5]: 98 % of control
T/C [6]: 102 % of control

COc1ccccc1NNS(=O)(=O)c1cccc([N+](=O)[O-])c1
T/C (dose: 75.0 mg/kg/injection, schedule: Q04DX003 (ip), vehicle: Klucel (hydroxypropylcellulose) (HPC)): 104 % of control
T/C [10]: 100 % of control
T/C (dose: 150.0 mg/kg/injection, schedule: Q04DX003 (ip), vehicle: Klucel (hydroxypropylcellulose) (HPC)): 94 % of control
T/C [11]: 103 % of control
T/C (dose: 300.0 mg/kg/injection, schedule: Q04DX003 (ip), vehicle: Klucel (hydroxypropylcellulose) (HPC)): 104 % of control
T/C [12]: 105 % of control

Nc1ccc2oc(=O)c(C(=O)O)cc2c1
T/C [10]: 112 % of control
T/C [11]: 89 % of control

O=C(O)/C=C/[P+](c1ccccc1)(c1ccccc1)c1ccccc1
T/C [13]: 101 % of control
T/C [14]: 106 % of control
T/C [15]: 101 % of control

COC(=O)NS(=O)(=O)c1ccco1
T/C [10]: 92 % of control
T/C [4]: 100 % of control
T/C [11]: 98 % of control
T/C [5]: 106 % of control
T/C [12]: 101 % of control
T/C [6]: 89 % of control

Cc1cc(O)[nH]c(=O)c1
T/C [13]: 105 % of control
T/C [14]: 105 % of control
T/C [15]: 100 % of control
T/C (dose: 40.0 mg/kg/injection, schedule: Q01DX001 (ip), vehicle: saline): 105 % of control
T/C (dose: 80.0 mg/kg/injection, schedule: Q01DX001 (ip), vehicle: saline): 100 % of control

CN(C)C(=S)Oc1ccc([N+](=O)[O-])cc1Cl
T/C [7]: 103 % of control
T/C [8]: 95 % of control
T/C [9]: 100 % of control

CC(=O)COc1ccccc1
T/C [7]: 108 % of control
T/C [4]: 100 % of control
T/C [8]: 110 % of control
T/C [5]: 97 % of control
T/C [9]: 108 % of control
T/C [6]: 95 % of control

CCOC(=O)c1cnc(C)nc1Nc1ccccc1Cl
T/C (dose: 50.0 mg/kg/injection, schedule: Q04DX003 (ip), vehicle: saline): 105 % of control
T/C [16]: 104 % of control
T/C [17]: 98 % of control and 108 % of control

COC(=O)CNC(=O)C(Cc1ccc(OCc2ccccc2)cc1)NC(=O)OC(C)(C)C (stereo not drawn)
T/C [1]: 98 % of control
T/C [16]: 93 % of control
T/C [2]: 106 % of control
T/C [17]: 97 % of control
T/C [3]: 96 % of control
T/C (dose: 400.0 mg/kg/injection, schedule: Q04DX003 (ip), vehicle: saline): 97 % of control

O=C(N/N=C\c1ccccc1O)c1ccco1
T/C (dose: 100.0 mg/kg/injection, schedule: Q01DX001 (ip), vehicle: carboxymethylcellulose (CMC)): 98 % of control
T/C (dose: 200.0 mg/kg/injection, schedule: Q01DX001 (ip), vehicle: carboxymethylcellulose (CMC)): 95 % of control
T/C (dose: 400.0 mg/kg/injection, schedule: Q01DX001 (ip), vehicle: carboxymethylcellulose (CMC)): 95 % of control

Cc1c2[n+](cc3ccccc13)C(C)CC(=O)N2 (stereo not drawn)
T/C (dose: 18.75 mg/kg/injection, schedule: Q01DX009 (ip), vehicle: saline): 95 % of control
T/C (dose: 37.5 mg/kg/injection, schedule: Q01DX009 (ip), vehicle: saline): 95 % of control
T/C (dose: 37.5 mg/kg/injection, schedule: Q04DX003 (ip), vehicle: saline): 97 % of control
T/C (dose: 75.0 mg/kg/injection, schedule: Q01DX001 (ip), vehicle: saline): 100 % of control
T/C (dose: 75.0 mg/kg/injection, schedule: Q01DX009 (ip), vehicle: saline): 94 % of control
T/C (dose: 75.0 mg/kg/injection, schedule: Q04DX003 (ip), vehicle: saline): 101 % of control
T/C (dose: 150.0 mg/kg/injection, schedule: Q01DX001 (ip), vehicle: saline): 94 % of control
T/C (dose: 150.0 mg/kg/injection, schedule: Q04DX003 (ip), vehicle: saline): 104 % of control

O=C(CCCCCCC(=O)C[n+]1ccccc1CO)C[n+]1ccccc1CO
T/C (dose: 12.5 mg/kg/injection, schedule: Q04DX003 (ip), vehicle: saline): 101 % of control

CC(=O)Oc1ccccc1C1OC(=O)c2ccccc2N1C(C)=O (stereo not drawn)
T/C (dose: 100.0 mg/kg/injection, schedule: Q01DX001 (ip), vehicle: saline with Tween-80): 106 % of control
T/C (dose: 100.0 mg/kg/injection, schedule: Q01DX009 (ip), vehicle: saline with Tween-80): 101 % of control and 103 % of control
T/C (dose: 100.0 mg/kg/injection, schedule: Q04DX002 (ip), vehicle: saline with Tween-80): 105 % of control and 87 % of control
T/C (dose: 200.0 mg/kg/injection, schedule: Q01DX001 (ip), vehicle: saline with Tween-80): 104 % of control
T/C (dose: 200.0 mg/kg/injection, schedule: Q01DX009 (ip), vehicle: saline with Tween-80): 93 % of control and 102 % of control
T/C (dose: 200.0 mg/kg/injection, schedule: Q04DX002 (ip), vehicle: saline with Tween-80): 96 % of control and 97 % of control
T/C (dose: 400.0 mg/kg/injection, schedule: Q01DX001 (ip), vehicle: saline with Tween-80): 103 % of control
T/C (dose: 400.0 mg/kg/injection, schedule: Q01DX009 (ip), vehicle: saline with Tween-80): 93 % of control
T/C (dose: 400.0 mg/kg/injection, schedule: Q04DX002 (ip), vehicle: saline with Tween-80): 94 % of control and 105 % of control

COc1cc(Nc2c3ccccc3nc3ccccc23)ccc1NS(C)(=O)=O
T/C (dose: 10.0 mg/kg/injection, schedule: Q01DX009 (ip), vehicle: saline with Tween-80): 154 % of control

C=CCC(OC(=O)Nc1ccc(Cl)cc1)C1OC(c2ccccc2)OC2COC(c3ccccc3)OC21 (stereo not drawn)
T/C (dose: 100.0 mg/kg/injection, schedule: Q01DX001 (ip), vehicle: gum acacia): 91 % of control
T/C (dose: 200.0 mg/kg/injection, schedule: Q01DX001 (ip), vehicle: gum acacia): 91 % of control
T/C (dose: 400.0 mg/kg/injection, schedule: Q01DX001 (ip), vehicle: gum acacia): 93 % of control

CCCCCCCCCCCCCCCC[N+](C)=C(SC)c1ccccc1OC
T/C (dose: 0.7 mg/kg/injection, schedule: Q01DX009 (ip), vehicle: Klucel (hydroxypropylcellulose) (HPC)): 101 % of control
T/C (dose: 1.5 mg/kg/injection, schedule: Q01DX009 (ip), vehicle: Klucel (hydroxypropylcellulose) (HPC)): 104 % of control
T/C (dose: 1.5 mg/kg/injection, schedule: Q04DX003 (ip), vehicle: Klucel (hydroxypropylcellulose) (HPC)): 95 % of control
T/C (dose: 3.0 mg/kg/injection, schedule: Q01DX009 (ip), vehicle: Klucel (hydroxypropylcellulose) (HPC)): 104 % of control
T/C (dose: 3.0 mg/kg/injection, schedule: Q04DX003 (ip), vehicle: Klucel (hydroxypropylcellulose) (HPC)): 97 % of control
